The target in test [1] is T1, human PR (progesterone receptor) (Homo sapiens, UniProt P06401).
T1 construct: expressed in transfected cells; host or cells: HEK293
T1 sequence (P06401 1-933): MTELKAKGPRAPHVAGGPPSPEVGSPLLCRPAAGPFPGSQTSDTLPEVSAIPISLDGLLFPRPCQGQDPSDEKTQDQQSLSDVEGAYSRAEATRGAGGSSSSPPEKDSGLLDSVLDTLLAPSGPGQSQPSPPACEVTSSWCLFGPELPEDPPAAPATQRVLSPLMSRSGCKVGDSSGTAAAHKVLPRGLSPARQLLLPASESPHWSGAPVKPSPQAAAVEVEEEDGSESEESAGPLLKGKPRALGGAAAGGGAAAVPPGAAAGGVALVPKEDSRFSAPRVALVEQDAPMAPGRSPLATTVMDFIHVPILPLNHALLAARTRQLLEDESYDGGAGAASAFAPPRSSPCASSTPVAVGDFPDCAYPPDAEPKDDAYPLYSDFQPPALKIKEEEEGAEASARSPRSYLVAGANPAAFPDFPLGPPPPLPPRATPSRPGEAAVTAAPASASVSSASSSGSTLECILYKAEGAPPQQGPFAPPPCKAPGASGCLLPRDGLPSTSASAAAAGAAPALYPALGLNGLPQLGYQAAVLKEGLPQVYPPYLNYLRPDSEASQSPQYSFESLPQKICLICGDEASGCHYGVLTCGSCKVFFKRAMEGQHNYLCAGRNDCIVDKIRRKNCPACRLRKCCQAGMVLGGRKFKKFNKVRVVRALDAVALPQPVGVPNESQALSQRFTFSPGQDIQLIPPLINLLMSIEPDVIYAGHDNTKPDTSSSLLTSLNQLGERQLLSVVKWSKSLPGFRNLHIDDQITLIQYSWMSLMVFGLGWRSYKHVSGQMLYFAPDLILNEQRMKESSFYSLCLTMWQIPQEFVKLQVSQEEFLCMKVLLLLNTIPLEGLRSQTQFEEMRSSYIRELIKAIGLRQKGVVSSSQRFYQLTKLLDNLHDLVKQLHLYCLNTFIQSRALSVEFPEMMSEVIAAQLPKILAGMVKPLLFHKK
The experiment in a line: PR competition binding assay (HEK293 cell lysate). The note with it: 0.29 nM 3H-methyltrienolone, 293-PR lysate. On the procedure:
(§1) Cell lysates from HEK293 cells overexpressing human GR (glucocorticoid receptor), AR (androgen receptor), MR (mineralocorticoid receptor) or PR (progesterone receptor) are used for competition binding assays to determine Ki values for compounds of interest. Briefly, competition binding assays are run in a buffer containing 20 mM HEPES, pH 7.6, 0.2 mM EDTA, 75 mM NaCl, 1.5 mM MgCl2, 20% glycerol, 20 mM sodium molybdate, 0.2 mM DTT, 20 ug/ml aprotinin, and 20 ug/ml leupeptin, using either 0.3 nM ^3H-dexamethasone for GR binding, 0.36 nM ^3H-methyltrienolone for AR binding, 0.25 nM ^3H-aldosterone for MR binding, or 0.29 nM ^3H-methyltrienolone for PR binding, and either 20 ug 293-GR lysate, 22 ug 293-AR lysate, 20 ug 293-MR lysate or 40 ug 293-PR lysate per well. Competing compounds are added at various concentrations in half-log increments. Non-specific binding is determined in the presence of 500 nM dexamethasone for GR binding, 500 nM aldosterone for MR binding, or 500 nM methyltrienolone for AR and PR binding. The binding reaction (140 μl) is incubated overnight at 4° C., then 70 μl of cold charcoal-dextran buffer (containing per 50 ml of assay buffer, 0.75 g of charcoal and 0.25 g of dextran) is added to each reaction. Plates are mixed 8 minutes on an orbital shaker at 4° C. Plates are then centrifuged at 3,000 rpm at 4° C. for 10 minutes. An aliquot of 120 μl of the mixture is transferred to another 96-well plate and 175 μl of Wallac Optiphase “Hisafe 3” scintillation fluid is added to each well. Plates are sealed and shaken vigorously on an orbital shaker. After an incubation of 2 hrs, plates are read in a Wallac Microbeta counter. […] The Kd for ^3H-dexamethasone for GR binding, ^3H-methyltrienolone for AR binding, ^3H-aldosterone for MR binding, or ^3H-methyltrienolone for PR binding, is determined by saturation binding. The IC50 values for compounds are converted to Ki using Cheng-Prusoff equation and the Kd determined by saturation binding assay.
More preferably the compounds of the present invention have PR binding value K; of <10 nM.

Test [2] has as its target T2, human GR (glucocorticoid receptor) (Homo sapiens, UniProt P04150).
T2 construct: expressed in transfected cells; host or cells: HEK293
T2 sequence (P04150 1-777): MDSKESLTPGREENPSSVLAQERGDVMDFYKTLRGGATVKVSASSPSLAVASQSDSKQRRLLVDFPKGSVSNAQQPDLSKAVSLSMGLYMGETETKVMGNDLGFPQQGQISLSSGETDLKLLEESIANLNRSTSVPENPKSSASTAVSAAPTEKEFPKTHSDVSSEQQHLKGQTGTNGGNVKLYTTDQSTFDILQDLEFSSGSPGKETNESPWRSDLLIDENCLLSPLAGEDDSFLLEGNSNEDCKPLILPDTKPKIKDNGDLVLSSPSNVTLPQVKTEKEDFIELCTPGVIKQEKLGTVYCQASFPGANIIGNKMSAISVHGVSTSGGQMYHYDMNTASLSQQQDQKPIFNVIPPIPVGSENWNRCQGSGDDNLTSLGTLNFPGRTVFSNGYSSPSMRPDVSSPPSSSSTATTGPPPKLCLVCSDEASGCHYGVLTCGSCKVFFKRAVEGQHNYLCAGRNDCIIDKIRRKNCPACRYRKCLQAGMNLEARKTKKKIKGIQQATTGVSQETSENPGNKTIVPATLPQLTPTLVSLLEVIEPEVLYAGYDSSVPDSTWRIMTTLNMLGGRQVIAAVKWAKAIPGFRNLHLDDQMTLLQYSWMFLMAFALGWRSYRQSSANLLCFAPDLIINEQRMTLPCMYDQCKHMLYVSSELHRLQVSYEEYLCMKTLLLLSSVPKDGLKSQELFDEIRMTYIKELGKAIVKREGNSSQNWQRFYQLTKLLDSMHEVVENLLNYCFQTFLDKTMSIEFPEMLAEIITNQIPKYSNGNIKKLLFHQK
The experiment in a line: GR competition binding assay (HEK293 cell lysate). The note with it: 0.3 nM 3H-dexamethasone, 293-GR lysate. On the procedure: as §1

Molecules are shown by their SMILES.

By Ki is commonly meant a measure of affinity in units of concentration, obtained from inhibition or displacement. A lower Ki goes with a stronger hold on the target. As to `CC(C)n1cc(-c2ccc(C#N)cc2)c2ccc(NS(=O)(=O)N3CCOCC3)cc21` [Example 100, Morpholine-4-sulfonic acid [3-(4-cyano-phenyl)-1-isopropyl-1H-indol-6-yl]-amide], the Ki in test [1] was 0.05 to 0.1 µM; in test [2], more than 1 µM.
The corresponding values for `CC(C)n1cc(-c2ccc(Cl)cc2)c2ccc(NS(C)(=O)=O)cc21` [Example 36, N-[3-(4-Chloro-phenyl)-1-isopropyl-1H-indol-6-yl]-methanesulfonamide] are less than 0.05 µM and more than 1 µM.
`CC(C)Cn1cc(-c2ccc(C#N)cc2)c2ccc(NS(C)(=O)=O)cc21` [Example 29, N-[3-(4-Cyano-phenyl)-1-isobutyl-1H-indol-6-yl]-methanesulfonamide]: the Ki was less than 0.05 µM in test [1] and 0.1 to 0.5 µM in test [2].
The corresponding values for `CS(=O)(=O)Nc1ccc2c(-c3ccc(C#N)cc3)cn(Cc3ccccc3)c2c1` [Example 72, N-[1-Benzyl-3-(4-cyano-phenyl)-1H-indol-6-yl]-methanesulfonamide] are less than 0.05 µM and 0.05 to 0.1 µM.
For `Cn1cc(-c2ccc(C#N)cc2)c2ccc(NS(=O)(=O)c3cccs3)cc21` [Example 32, Thiophene-2-sulfonic acid [3-(4-cyano-phenyl)-1-methyl-1H-indol-6-yl]-amide], in that order: less than 0.05 µM and more than 1 µM.
For `CC(C)n1cc(-c2ccc3sccc3c2)c2ccc(NS(C)(=O)=O)cc21` [Example 95, N-(3-Benzo[b]thiophen-5-yl-1-isopropyl-1H-indol-6-yl)-methanesulfonamide], in that order: less than 0.05 µM and more than 1 µM.

Source of the values: US7932284B2, “Indole sulfonamide modulators of progesterone receptors” (Eli Lilly and Company, priority 2006, dated 2011).
